# Measured values taken from US20180188270A1, “DIAGNOSTIC TEST FOR ALZHEIMER'S DISEASE BASED ON IDENTIFICATION OF A PROTEOLYTIC PATHWAY” (Health Research, Inc., priority 2015, published 2018).
# Where “and” joins values, the source holds several entries; their conditions need not be identical. Equal entries are not always repeated. Entries after “also recorded” stand apart in the source; their conditions may differ.
# Assays:
# Format in all cases: in vivo, mouse
# [1] = system: plasma hAβ1-40; assay: Plasma hAβ1-40 level in mice by ELISA; conditions: EP 0.5 mg/kg i.p. daily 5 days, hAβ1-40 40 μg/kg 1 h after fifth dose, 6 h
# Description: Male C57BL/6 mice (7-8 weeks of age) were purchased from Taconic and were treated with vehicle (PBS) and EP (0.5 mg/kg) i.p. once daily for 5 days. […] Blood was collected into K3 EDTA-containing tubes (Multivette 600 from Sarstedt). […] The plates were washed three times with phosphate buffered saline with tween-20 (PBST) and the coated wells were blocked by incubation with 200 μl/well of 1% BSA in PBS for at least 2 h at room temperature (RT). […] The plates were washed again with PBST, and each well was incubated with a goat anti-rabbit IgG-HRP conjugate (100 μl) for 1 h at RT.
# [2] = system: total plasma Aβ1-40 and Aβ1-42; assay: Total plasma level of Aβ1-40 and Aβ1-42 in J20 AD mice and WT mice by ELISA; conditions: for increase in total plasma levels of Aβ1-40 and Aβ1-42: EP 0.5 mg/kg i.p. daily 5 days
# From the text: (§1) B6.Cg-Tg(PDGFB-APPSwlnd) 20 Lms/2 JMjax mice, also known as J20 mice, were purchased from Jackson Laboratory. J20 mice express a mutant form of the human Aβ precursor protein (APP) bearing both the Swedish (K670N/M671L) and the Indiana (V717F) mutations (APPSwlnd) (Mucke et al., J Neurosci, 2000, 20, 4050-4058). Neural expression of the transgenic insert is directed by the human platelet-derived growth factor beta polypeptide (PDGFB) promoter. J20 mice in C57BL/6 background (male hemizygotes) were bred to wild type (WT) female C57BL/6J mice (also purchased from Jackson Laboratory). F1 mice were genotyped by PCR at weaning to identify the hemizygotes and the non-transgenic littermates. Mice at age of 1 month and 3 months were treated once daily with vehicle or EP (0.5 mg/kg) i.p for 5 days. EP was given in PBS (0.1 ml per 20 g body weight). Blood was collected from the mice at 6 h after the last PBS/EP dose by cardiac puncture at the time of sacrifice by carbon dioxide. Blood was collected into K3 EDTA-containing tubes (Multivette 600 from Sarstedt).
# Total plasma levels of Aβ1-40 and Aβ1-42 were measured by ELISA. Briefly, 96-well ELISA plates were coated with an anti-Aβ1-42 monoclonal antibody (sc-374527) at 0.25 μg/100 μl/well at 4° C. overnight. The plates were washed three times with phosphate buffered saline tween-20 (PBST) and the coated wells were blocked by incubation with 200 μl/well of 1% BSA in PBS for at least 2 h at RT. […] The plates were then washed with PBST and incubated with an anti-Aβ1-42 rabbit polyclonal antibody (sc-9129) at 100 μl/well for 2 h at RT. The plates were washed again with PBST, and each well was incubated with a goat anti-rabbit IgG-HRP conjugate (100 μl) for 1 h at RT. After yet another round of wash with PBST, each well was incubated with 100 μl of HRP substrate 3,3′,5,5′-tetramethylbenzedine (Cell Signaling, 7004). Upon adequate color development, 100 μl of stop solution (Cell Signaling, 7002) was added to each well, and absorbance at 450 nm was promptly recorded by a microtiter plate reader.
# [3] = system: coagulation factors FX, FII and FVII; assay: Coagulation proteases in J20 AD mice by western blotting; conditions: AD mice at 1 month and 3 months of age, EP 0.5 mg/kg i.p. daily 5 days
# From the text: as §1
# [4] = system: plasma PEPD; assay: Plasma PEPD concentration in mice by ELISA; conditions: for average plasma level of total PEPD, higher than with hPEPD alone: hPEPD 0.2 mg/kg 1 h after last EP dose
# Description: Animal studies. All animal studies were performed in accordance with protocols approved by the Institutional Animal Care and Use Committee at Roswell Park Cancer Institute. Male mice at 7-8 weeks of age were used, including wild type (WT) mice (C57BL/6), and mice deficient in FXII (C57BL/6-FXII^−/−) or FVII (C57BL/6-FVII^tTA/tTA). WT C57BL/6 mice were purchased from Taconic. C57BL/6-FXII^−/− mice and C57BL/6-FVII^tTA/tTA mice were bred in our own facility and genotyped. The breeders were kindly provided by Dr. Francis J. Castellino at University of Notre Dame. […] CCl4 was dissolved in corn oil, whereas all other substances were dissolved in PBS. The vehicle or the test substance was given to mice in 0.1 ml volume per 20 g body weight. Blood was collected from the mice at specific times by cardiac puncture at the time of sacrifice by carbon dioxide, and heart, liver and kidney were also collected from some of the mice. Blood was collected into K3 EDTA-containing tubes (Multivette 600 from Sarstedt), unless specified otherwise. All blood samples were promptly centrifuged to obtain plasma samples.
# Measurement of plasma levels of PEPD, SRC, Aβ1-42 and FI. […] The plates were washed three times with phosphate buffered saline tween-20 (PBST) and the coated wells were blocked by incubation with 200 μl/well of 1% BSA in PBS for at least 2 h at RT. After another round of wash with PBST, the plates were incubated with appropriately diluted Aβ1-42 standard, SRC standard or plasma samples (100 μl/well) for 2 h at RT. The plates were then washed with PBST and incubated with an anti-Aβ1-42 rabbit polyclonal antibody (sc-9129) or anti-SRC rabbit monoclonal antibody (2123) at 100 μl/well for 2 h at RT. The plates were washed again with PBST, and each well was incubated with a goat anti-rabbit IgG-HRP conjugate (100 μl) for 1 h at RT. After yet another round of wash with PBST, each well was incubated with 100 μl of HRP substrate 3,3′,5,5′-tetramethylbenzedine (Cell Signaling, 7004). Upon adequate color development, 100 μl of stop solution (Cell Signaling, 7002) was added to each well, and absorbance at 450 nm was promptly recorded by a microtiter plate reader. Plasma FI concentration was determined using an assay kit (400-374-130050) from GenWay Biotech, following the manufacturer's instruction.
# [5] = system: plasma coagulation factors FXII, PK, HMWK, FXI, FIX, FX, FII, FI and FVII; assay: Changes in plasma coagulation factors in mice by IB (FI by ELISA)
# Description: Animal studies. […] Male mice at 7-8 weeks of age were used, including wild type (WT) mice (C57BL/6), and mice deficient in FXII (C57BL/6-FXII^−/−) or FVII (C57BL/6-FVII^tTA/tTA). WT C57BL/6 mice were purchased from Taconic. C57BL/6-FXII^−/− mice and C57BL/6-FVII^tTA/tTA mice were bred in our own facility and genotyped. […] CCl4 was dissolved in corn oil, whereas all other substances were dissolved in PBS. The vehicle or the test substance was given to mice in 0.1 ml volume per 20 g body weight. Blood was collected from the mice at specific times by cardiac puncture at the time of sacrifice by carbon dioxide, and heart, liver and kidney were also collected from some of the mice. Blood was collected into K3 EDTA-containing tubes (Multivette 600 from Sarstedt), unless specified otherwise. All blood samples were promptly centrifuged to obtain plasma samples.
# The plates were washed three times with phosphate buffered saline tween-20 (PBST) and the coated wells were blocked by incubation with 200 μl/well of 1% BSA in PBS for at least 2 h at RT. […] The plates were washed again with PBST, and each well was incubated with a goat anti-rabbit IgG-HRP conjugate (100 μl) for 1 h at RT. After yet another round of wash with PBST, each well was incubated with 100 μl of HRP substrate 3,3′,5,5′-tetramethylbenzedine (Cell Signaling, 7004). Upon adequate color development, 100 μl of stop solution (Cell Signaling, 7002) was added to each well, and absorbance at 450 nm was promptly recorded by a microtiter plate reader. Plasma FI concentration was determined using an assay kit (400-374-130050) from GenWay Biotech, following the manufacturer's instruction.
# IB. Tissue samples were mixed with RIPA buffer (25 mM Tris-HCl, pH 7.6, 150 mM NaCl, 1% Nonidet P-40, 1% sodium deoxycholate, 0.1% SDS), supplemented with 2 mM phenylmethanesulfonyl fluoride, a proteinase inhibitor mix (Roche Applied Science) and phosphatase inhibitor Cocktail 2 (Sigma-Aldrich). Tissue samples were stroked in a Dounce homogenizer, and the homogenates were cleared by centrifugation at 12,000×g for 15 min at 4° C. Protein concentrations in all samples were measured by the BCA assay kit. Plasma samples were used without further processing (20 μl per sample). Each sample was mixed with 4× loading dye, heated for 5 min at 95° C. and then resolved by SDS-PAGE (8-12.5%). […] The proteins were transferred to polyvinylidene fluoride membrane, probed with specific antibodies and detected using the ECL Plus Kit (Amersham) or the SuperSignal West Pico Kit (Thermo Scientific).
# [6] = system: plasma Aβ1-42; assay: Plasma Aβ1-42 concentration in mice by ELISA; conditions: WT mice, EP 2.5 mg/kg i.p. daily 5 days
# Description: Animal studies. All animal studies were performed in accordance with protocols approved by the Institutional Animal Care and Use Committee at Roswell Park Cancer Institute. Male mice at 7-8 weeks of age were used, including wild type (WT) mice (C57BL/6), and mice deficient in FXII (C57BL/6-FXII^−/−) or FVII (C57BL/6-FVII^tTA/tTA). WT C57BL/6 mice were purchased from Taconic. C57BL/6-FXII^−/− mice and C57BL/6-FVII^tTA/tTA mice were bred in our own facility and genotyped. […] CCl4 was dissolved in corn oil, whereas all other substances were dissolved in PBS. The vehicle or the test substance was given to mice in 0.1 ml volume per 20 g body weight. Blood was collected from the mice at specific times by cardiac puncture at the time of sacrifice by carbon dioxide, and heart, liver and kidney were also collected from some of the mice. Blood was collected into K3 EDTA-containing tubes (Multivette 600 from Sarstedt), unless specified otherwise. All blood samples were promptly centrifuged to obtain plasma samples.
# [7] = WT mice, EP 2.5 mg/kg i.p. daily 5 days
# [8] = WT mice, EP 2.5 mg/kg daily 5 days, hPEPD 0.2 mg/kg
substance,measurement,setting,value
enoxaparin [EP],elevation of average plasma hAβ1-40 concentration by EP pretreatment,[1],77.4 fold
same,ratio of EP-induced increase in total plasma levels of Aβ1-40 and Aβ1-42 in AD mice to WT mice,[2]; 1 month of age,8.71-9.32
same,ratio of EP-induced increase in total plasma levels of Aβ1-40 and Aβ1-42 in AD mice to WT mice,[2]; 3 month of age,47.53-56.85
same,increase in total plasma levels of Aβ1-40 and Aβ1-42,"[2]; AD mice, 1 month of age",about 2.3 fold
same,increase in total plasma levels of Aβ1-40 and Aβ1-42,"[2]; AD mice, 3 month of age",3.6-4.2 fold
same,increase in total plasma levels of Aβ1-40 and Aβ1-42,[2]; WT mice at both 1 month and 3 months of age,about 1.6 fold
same,"EP effect on activation of FX, FII and FVII",[3],"inhibits the activation of FX, FII and FVII"
same,"average plasma level of total PEPD in WT mice, lower than in FXII−/− mice","[4]; EP pretreatment, 6 h after hPEPD 0.2 mg/kg i.p.",14.6%
same,effect of EP on plasma PEPD level,"[4]; FXII−/− mice, EP 2.5 mg/kg i.p. daily 5 days",did not show a significant effect
same,"plasma level of mPEPD, increase by EP",[4]; [7],2.0 fold and 2.1 fold
same,"average plasma level of total PEPD, higher than with hPEPD alone","[4]; WT mice, EP 2.5 mg/kg i.p. daily 5 days, 1 h after hPEPD",35.2 fold
same,"average plasma level of total PEPD, higher than with hPEPD alone","[4]; WT mice, EP 2.5 mg/kg i.p. daily 5 days, 24 h after hPEPD",63.8 fold
same,average plasma level of total PEPD,"[4]; WT mice, EP pretreatment, 6 h after hPEPD 0.2 mg/kg i.p.",19.7 nM
same,reduction of hPEPD dose allowed by EP without decreasing its plasma concentration,"[4]; mice, plasma concentration required for inhibition of ERBB2-driven tumors",at least 50 fold
same,"EP inhibition of hPEPD-induced slight activation of FX, FII and FVII",[5]; FXII−/− mice,largely inhibited by EP
same,"EP inhibition of activation of FX, FII and FVII","[5]; WT mice treated with hAβ1-42 40 μg/kg, EP 2.5 mg/kg daily 5 days","greatly inhibited the activation of FX, FII and FVII"
same,"EP prevention of hPEPD-induced activation of FXII, PK, HMWK, FXI and FIX",[5]; [8],"failed to prevent hPEPD from activating FXII, PK, HMWK, FXI and FIX"
same,"EP prevention of hPEPD-induced activation or cleavage of FX, FII, FI and FVII",[5]; [8],"prevented hPEPD from causing activation or cleavage of FX, FII, FI and FVII"
same,effect of EP itself on plasma coagulation factors,[5]; [7],had no effect on any of the FXII-FVII pathway factors measured; also recorded: had no effect on these factors
same,"average plasma level of endogenous mAβ1-42, higher in EP-treated mice than in control mice",[6],1.7 fold
same,"plasma level of total Aβ1-42, increase after EP plus hAβ1-42","[6]; hAβ1-42 40 μg/kg 1 h after last dose, 6 h",406.0 fold
